Columns and labels:
BFU-E cells [1] = test: CFU-E and BFU-E colony forming assays of BFU-E cells cultured in SFELE medium; type: cell-based, mouse; conditions: for Total colony numbers from 1,000 "BFU-E" cells: CFU-E 1 cluster / Total colony numbers from 1,000 "BFU-E" cells: large BFU-E >20 clusters / Total colony numbers from 1,000 "BFU-E" cells: small BFU-E 5-20 clusters: CD24 and CD71 10% low BFU-E cells, SFELE, 100 nM Dex and/or 333 μM DMOG; for Total colony numbers from 1000 BFU-E cells: Large BFU-E / Total colony numbers from 1000 BFU-E cells: Single CFU-E / Total colony numbers from 1000 BFU-E cells: Small BFU-E: CD71 10% low BFU-E cells, SFELE with 100 nM Dex
Description: Dexamethasone prevents BFU-E cell exhaustion, which allows more CFU-E cells to be formed. […] (A) The total number of cells formed from 1000 BFU-E cells at different time points. […] Standard deviation between four separate biological experiments is shown in parenthesis (n/d=not determined).
At daily intervals colony assays were performed (Table 2). As in the experiment in FIG. 3, for the first three days the total number of cells increased at the same rate in all cultures.
Colonies were scored after 3 days. […] The number of hemoglobinized early BFU-E and late BFU-E colonies was determined after 8-9 days following staining with 2,7-Diaminofluorene (Sigma Chemical, St. Louis, Mo.).

BFU-E cells [2] = test: FACS analysis of c-kit expression of BFU-E cells in SFELE culture; type: cell-based, mouse; conditions: day 3 of culture, 100 nM Dex
Description: FIGS. 1A-1F. Glucocorticoids stimulate stress erythropoiesis by enhancing erythroblast output predominantly from BFU-E progenitors. […] Error bars show one standard deviation. […] Error bars show one standard deviation. […] Shown is the fraction of c-kit+ cells after 72 hours. […] Cell numbers in each clone were estimated under the microscope on Day 8. 80% of sorted BFU-E cells form more than 100 daughter cells in erythroid expansion culture.

[3] = CD71 10% low cells, SFELE with Dex, Day 3
[4] = Day 3 of culture, 100 nM Dex or 333 μM DMOG alone

With `C[C@@H]1C[C@H]2[C@@H]3CCC4=CC(=O)C=C[C@]4(C)[C@@]3(F)[C@@H](O)C[C@]2(C)[C@@]1(O)C(=O)CO` [Dex, dexamethasone] the “Total colony numbers from 1,000 "BFU-E" cells: CFU-E 1 cluster” value (shortened to “Total colony numbers … CFU-E 1 cluster”) (BFU-E cells [1]; day 0 (before culture)) was 30 (±11), the “Total colony numbers from 1,000 "BFU-E" cells: large BFU-E >20 clusters” value (from here on “Total colony numbers … large BFU-E >20 clusters”) (BFU-E cells [1]; day 0 (before culture)) was 423 (±31) and the “Total colony numbers from 1,000 "BFU-E" cells: small BFU-E 5-20 clusters” value (from here on “Total colony numbers … small BFU-E 5-20 clusters”) (BFU-E cells [1]; day 0 (before culture)) was 262 (±64). The “Total colony numbers … CFU-E 1 cluster” value (BFU-E cells [1]; day 1) was 424 (±271), the “Total colony numbers … large BFU-E >20 clusters” value (BFU-E cells [1]; day 1) was 463 (±61) and the “Total colony numbers … small BFU-E 5-20 clusters” value (BFU-E cells [1]; day 1) was 1,766 (±695). For the same molecule, the “Total colony numbers … CFU-E 1 cluster” value (BFU-E cells [1]; day 2) was 11,468 (±1,088), the “Total colony numbers … large BFU-E >20 clusters” value (BFU-E cells [1]; day 2) was 482 (±110) and the “Total colony numbers … small BFU-E 5-20 clusters” value (BFU-E cells [1]; day 2) was 5,771 (±1,625). The “Total colony numbers … CFU-E 1 cluster” value (BFU-E cells [1]; day 3) was 60,699 (±22,369), the “Total colony numbers … large BFU-E >20 clusters” value (BFU-E cells [1]; day 3) was 400 (±108) and the “Total colony numbers … small BFU-E 5-20 clusters” value (BFU-E cells [1]; day 3) was 8,334 (±2,489). The “Total colony numbers … CFU-E 1 cluster” value (BFU-E cells [1]; day 4) was 138,600 (±24,546), the “Total colony numbers … CFU-E 1 cluster” value (BFU-E cells [1]; day 5) was 261,550 (±98,160) and the “Total colony numbers … large BFU-E >20 clusters” value (BFU-E cells [1]; day 5) was 0. For the same molecule, the “Total colony numbers … small BFU-E 5-20 clusters” value (BFU-E cells [1]; day 5) was 10,271 (±3,344), the “Total colony numbers … CFU-E 1 cluster” value (BFU-E cells [1]; day 6) was 249,160 (±55,172) and the “Total colony numbers … CFU-E 1 cluster” value (BFU-E cells [1]; day 7 (performed twice)) was 176,000 (±15,556). The “Total colony numbers … CFU-E 1 cluster” value (BFU-E cells [1]; day 8 (performed twice)) was 66,000 (±56,003), the “Total colony numbers from 1000 BFU-E cells: Large BFU-E” value (BFU-E cells [1]; 0 h (before culture)) was 241 (±79) and the “Total colony numbers from 1000 BFU-E cells: Single CFU-E” value (shortened to “Total colony numbers … Single CFU-E”) (BFU-E cells [1]; 0 h (before culture)) was 73 (±26). For the same molecule, the “Total colony numbers from 1000 BFU-E cells: Small BFU-E” value (BFU-E cells [1]; 0 h (before culture)) was 277 (±89), the “Total colony numbers from 1000 BFU-E cells: Large BFU-E” value (BFU-E cells [1]; 24 h) was 181 (±132) and the “Total colony numbers … Single CFU-E” value (BFU-E cells [1]; 24 h) was 1,164 (±593). The “Total colony numbers from 1000 BFU-E cells: Small BFU-E” value (BFU-E cells [1]; 24 h) was 1,568 (±604), the “Total colony numbers from 1000 BFU-E cells: Large BFU-E” value (BFU-E cells [1]; 48 h) was 130 (±53) and the “Total colony numbers … Single CFU-E” value (BFU-E cells [1]; 48 h) was 25,342 (±5,714). For the same molecule, the “Total colony numbers from 1000 BFU-E cells: Small BFU-E” value (BFU-E cells [1]; 48 h) was 6,730 (±515), the “Total colony numbers from 1000 BFU-E cells: Large BFU-E” value (BFU-E cells [1]; 72 h) was 150 (±58) and the “Total colony numbers … Single CFU-E” value (BFU-E cells [1]; 72 h) was 122,413 (±14,086). The “Total colony numbers from 1000 BFU-E cells: Small BFU-E” value (BFU-E cells [1]; 72 h) was 15,350 (±3,838), the “Total colony numbers … Single CFU-E” value (BFU-E cells [1]; 120 h) was 904,050 (±434,778) and the “Late BFU-Es per initial sorted BFU-E cell” value (BFU-E cells [1]; CD71 10% low cells, SFELE with Dex, Day 2) was 67. For the same molecule, the “CFU-Es formed per BFU-E” value (BFU-E cells [1]; [3]) was 122, the “Late BFU-Es per initial sorted BFU-E cell” value (BFU-E cells [1]; [3]) was 153 and the “BFU-Es per plated BFU-E” value (BFU-E cells [1]; [4]) was 8.7. For the same molecule, the “CFU-Es per plated BFU-E” value (BFU-E cells [1]; [4]) was 51, the “Increase of number of CFU-E cells between Days 3 and 5” value (BFU-E cells [1]; cultures with Dex) was 7.3 fold and the “Cells still expressing c-kit” value (BFU-E cells [2]) was 55%.
